# Experimental data taken from patent US12215106B2, “Pharmaceutical compounds and therapeutic methods” (RUTGERS, THE STATE UNIVERSITY OF NEW JERSEY, priority 2018, dated 2025).
# Where a name gives a salt, the structure may show the parent alone. Read-outs that look alike come from different tables or passages of the source.
# Experiment: Plasma pharmacokinetics and brain distribution after single IV, IP and oral administration
# Assay type: in vivo
# Procedure: The objective of this study was to investigate the plasma pharmacokinetics and brain distribution of Compound (14 in male C57BL/6 mice following a single intravenous, intraperitoneal and oral administration. A group of sixty-three male mice were divided into three groups (Group 1: 2 mg/kg/IV; Group 2: 10 mg/kg/IP and Group 3: 10 mg/kg/PO) with each group comprising of twenty-one mice.
# Animals in Group 1 were administered intravenously with Compound 15 solution formulation in 5% NMP, 5% Solutol HS-15, 30% PEG-400 and 60% Captisol (20% w/v) at 2 mg/kg dose. […] Considering mortality intravenous dose was reduced to 2 mg/kg.
# Animals in Group 2 and 3 were administered with Compound 15 solution formulation in 5% NMP, 5% Solutol HS-15, 30% PEG-400 and 60% Captisol (20% w/v) at a dose of 10 mg/kg by intraperitoneal and oral route respectively.
# (§1) Blood samples (approximately 60 μL) were collected under light isoflurane anesthesia from retro orbital plexus from a set of three mice at 0.08, 0.35, 1, 3, 6, 12 and 24 hr. Plasma samples were separated by centrifugation of whole blood and stored below −70±10° C. until bioanalysis. Immediately after collection of blood, brain samples were collected from set of three mice at each time point. Brain samples were homogenized using ice-cold phosphate buffer saline (pH-7.4) in a ratio of 2 (buffer):1(brain); and homogenates were stored below −70±10° C. until analysis. Total homogenate volume was three times the brain weight. All samples were processed for analysis by protein precipitation using acetonitrile and analyzed with fit-for-purpose LC/MS/MS method (LLOQ2.00 ng/mL for plasma and 3.00 ng/g for brain). Pharmacokinetic parameters were calculated using the non-compartmental analysis tool of Phoenix WinNonlin® (Version 7.0). Pharmacokinetic parameters of Compound 15 are summarized below.
# The objective of this study was to investigate the plasma pharmacokinetics and brain distribution of Compound 16 in male C57BL/6 mice following a single intravenous, intraperitoneal and oral administration. A group of sixty-three male mice were divided into three groups (Group 1: 10 mg/kg/IV; Group 2: 10 mg/kg/IP and Group 3: 10 mg/kg/PO) with each group comprising of twenty-one mice.
# Animals in Group 1 were administered intravenously with Compound 16 solution formulation in 5% NMP, 5% Solutol HS-15 and 90% normal saline at 10 mg/kg dose.
# Animals in Group 2 and 3 were administered with Compound 16 solution formulation in 5% NMP, 5% Solutol HS-15 and 90% normal saline at a dose of 10 mg/kg by intraperitoneal and oral route respectively.
# as §1, with “(LLOQ—1.00” for “(LLOQ2.00”, “16” for “15”
# The objective of this study was to investigate the plasma pharmacokinetics and brain distribution of Compound 17 in male C57BL/6 mice following a single intravenous, intraperitoneal and oral administration. A group of sixty-three male mice were divided into three groups (Group 1: 2 mg/kg/IV; Group 2: 10 mg/kg/IP and Group 3: 10 mg/kg/PO) with each group comprising of twenty-one mice. […]
# [1] = male, C57BL/6, mouse, brain, ip, 10 mg/kg, IP 10 mg/kg, read-out: Brain-to-plasma ratio
# [2] = male, C57BL/6, mouse, brain, po, 10 mg/kg, PO 10 mg/kg, read-out: Brain-to-plasma ratio
# [3] = male, C57BL/6, mouse, in vivo, ip, 10 mg/kg
# [4] = male, C57BL/6, mouse, in vivo, ip, 10 mg/kg, 12 h
# [5] = male, C57BL/6, mouse, in vivo, ip, 10 mg/kg, 24 h
# [6] = male, C57BL/6, mouse, in vivo, ip, 10 mg/kg, Brain concentration, individual animal
# [7] = male, C57BL/6, mouse, in vivo, ip, 10 mg/kg, Mean brain conc.
# [8] = male, C57BL/6, mouse, in vivo, ip, 10 mg/kg, Mean plasma conc.
# [9] = male, C57BL/6, mouse, in vivo, ip, 10 mg/kg, Plasma concentration, individual animal
# [10] = male, C57BL/6, mouse, in vivo, iv, 2 mg/kg
# [11] = male, C57BL/6, mouse, in vivo, iv, 2 mg/kg, 6 h
# [12] = male, C57BL/6, mouse, in vivo, iv, 2 mg/kg, 12 h
# [13] = male, C57BL/6, mouse, in vivo, iv, 2 mg/kg, 24 h
# [14] = male, C57BL/6, mouse, in vivo, iv, 2 mg/kg, Brain concentration, individual animal
# [15] = male, C57BL/6, mouse, in vivo, iv, 2 mg/kg, Mean brain conc.
# [16] = male, C57BL/6, mouse, in vivo, iv, 2 mg/kg, Mean plasma conc.
# [17] = male, C57BL/6, mouse, in vivo, iv, 2 mg/kg, Plasma concentration, individual animal
# [18] = male, C57BL/6, mouse, in vivo, po, 10 mg/kg
# [19] = male, C57BL/6, mouse, in vivo, po, 10 mg/kg, 24 h
# [20] = male, C57BL/6, mouse, in vivo, po, 10 mg/kg, Brain concentration, individual animal
# [21] = male, C57BL/6, mouse, in vivo, po, 10 mg/kg, Mean brain conc.
# [22] = male, C57BL/6, mouse, in vivo, po, 10 mg/kg, Mean plasma conc.
# [23] = male, C57BL/6, mouse, in vivo, po, 10 mg/kg, Plasma concentration, individual animal
# [24] = male, C57BL/6, mouse, in vivo, IV 2 mg/kg, read-out: Brain-to-plasma ratio
compound,measurement,setting,value
"[2H]C([2H])([2H])Oc1ccc(Nc2nc(-c3c(C)nc4ccccn34)cs2)cc1 [Compound 15, N-(4-(methoxy-d3)phenyl)-4-(2-methylimidazo[1,2-c]pyridin-3-yl)thiazol-2-amine hydrochloride]",Kp at 0.08 h,[1],0.19
same,Kp at 0.35 h,[1],0.63
same,Kp at 1 h,[1],0.75
same,Kp at 3 h,[1],0.36
same,Kp at 6 h,[1],0.38
same,Kp,"male, C57BL/6, mouse, brain, ip, 10 mg/kg, IP 10 mg/kg, read-out: brain-to-plasma ratio, range over time",0.19 to 0.75
same,Kp,"male, C57BL/6, mouse, brain, iv, 2 mg/kg, IV 2 mg/kg, read-out: brain-to-plasma ratio, range over time",1.17 to 1.64
same,Kp at 0.08 h,[2],0.1
same,Kp at 0.35 h,[2],0.41
same,Kp at 1 h,[2],1.03
same,Kp at 3 h,[2],0.7
same,Kp at 6 h,[2],0.6
same,Kp at 12 h,"male, C57BL/6, mouse, brain, po, 10 mg/kg, PO 10 mg/kg, 12 hr, read-out: Brain-to-plasma ratio",0.62
same,Kp,"male, C57BL/6, mouse, brain, po, 10 mg/kg, PO 10 mg/kg, read-out: brain-to-plasma ratio, range over time",0.1 to 1.03
same,Kp,"male, C57BL/6, mouse, brain, po, 10 mg/kg, summary data, read-out: Brain to plasma ratio following a single oral dose",1.03
same,Brain concentrations quantifiable up to,[3],up to 6 hr
same,Plasma concentrations quantifiable up to,[3],up to 6 hr
same,"Brain concentration, individual animal",[4],0.00 ng/g
same,"Plasma concentration, individual animal",[4],0.00 ng/mL
same,"Brain concentration, individual animal",[5],0.00 ng/g
same,"Plasma concentration, individual animal",[5],0.00 ng/mL
same,concentration at 0.08 h,[6],38.4 ng/g
same,concentration at 0.35 h,[6],287 ng/g
same,concentration at 1 h,[6],383 ng/g
same,concentration at 3 h,[6],48.4 ng/g
same,concentration at 12 h,[6],0 ng/g
same,concentration at 24 h,[6],0 ng/g
same,concentration at 0.08 h,[7],43.6 ng/g
same,concentration at 0.35 h,[7],266 ng/g
same,concentration at 1 h,[7],305 ng/g
same,concentration at 3 h,[7],57.7 ng/g
same,concentration at 6 h,[7],6.06 ng/g
same,concentration at 12 h,[7],0 ng/g
same,concentration at 24 h,[7],0 ng/g
same,concentration at 0.08 h,[8],229 ng/mL
same,concentration at 0.35 h,[8],422 ng/mL
same,concentration at 1 h,[8],409 ng/mL
same,concentration at 3 h,[8],160 ng/mL
same,concentration at 6 h,[8],16.1 ng/mL
same,concentration at 12 h,[8],0 ng/mL
same,concentration at 24 h,[8],0 ng/mL
same,concentration at 0.08 h,[9],228 ng/mL
same,concentration at 0.35 h,[9],467 ng/mL
same,concentration at 1 h,[9],563 ng/mL
same,concentration at 3 h,[9],174 ng/mL
same,concentration at 12 h,[9],0 ng/mL
same,concentration at 24 h,[9],0 ng/mL
same,Brain concentrations quantifiable up to,[10],up to 3 hr
same,"Vss, fold more than normal volume of total body water (0.7 L/kg)",[10],11 fold
same,"Brain concentration, individual animal",[11],0.00 ng/g
same,"Plasma concentration, individual animal",[11],0.00 ng/mL
same,"Brain concentration, individual animal",[12],0.00 ng/g
same,"Plasma concentration, individual animal",[12],0.00 ng/mL
same,"Brain concentration, individual animal",[13],0.00 ng/g
same,"Plasma concentration, individual animal",[13],0.00 ng/mL
same,concentration at 0.08 h,[14],392 ng/g
same,concentration at 0.35 h,[14],270 ng/g
same,concentration at 1 h,[14],67.2 ng/g
same,concentration at 6 h,[14],0 ng/g
same,concentration at 12 h,[14],0 ng/g
same,concentration at 24 h,[14],0 ng/g
same,concentration at 0.08 h,[15],366 ng/g
same,concentration at 0.35 h,[15],231 ng/g
same,concentration at 1 h,[15],80 ng/g
same,concentration at 3 h,[15],27.2 ng/g
same,concentration at 6 h,[15],0 ng/g
same,concentration at 12 h,[15],0 ng/g
same,concentration at 24 h,[15],0 ng/g
same,concentration at 0.08 h,[16],313 ng/mL
same,concentration at 0.35 h,[16],149 ng/mL
same,concentration at 1 h,[16],61.9 ng/mL
same,concentration at 3 h,[16],16.6 ng/mL
same,concentration at 6 h,[16],0 ng/mL
same,concentration at 12 h,[16],0 ng/mL
same,concentration at 24 h,[16],0 ng/mL
same,concentration at 0.08 h,[17],298 ng/mL
same,concentration at 0.35 h,[17],139 ng/mL
same,concentration at 6 h,[17],0 ng/mL
same,concentration at 12 h,[17],0 ng/mL
same,concentration at 24 h,[17],0 ng/mL
same,Brain concentrations quantifiable up to,[18],up to 12 hr
same,Plasma concentrations quantifiable up to,[18],up to 12 hr
same,"Brain concentration, individual animal",[19],0.00 ng/g
same,"Plasma concentration, individual animal",[19],0.00 ng/mL
same,concentration at 0.08 h,[20],8.31 ng/g
same,concentration at 1 h,[20],190 ng/g
same,concentration at 24 h,[20],0 ng/g
same,concentration at 0.08 h,[21],7.99 ng/g
same,concentration at 0.35 h,[21],108 ng/g
same,concentration at 1 h,[21],253 ng/g
same,concentration at 3 h,[21],66 ng/g
same,concentration at 6 h,[21],6.63 ng/g
same,concentration at 12 h,[21],3.63 ng/g
same,concentration at 24 h,[21],0 ng/g
same,concentration at 0.08 h,[22],78.2 ng/mL
same,concentration at 0.35 h,[22],261 ng/mL
same,concentration at 1 h,[22],245 ng/mL
same,concentration at 3 h,[22],93.7 ng/mL
same,concentration at 6 h,[22],11.1 ng/mL
same,concentration at 12 h,[22],5.82 ng/mL
same,concentration at 24 h,[22],0 ng/mL
same,concentration at 0.35 h,[23],251 ng/mL
same,concentration at 12 h,[23],8.42 ng/mL
same,concentration at 24 h,[23],0 ng/mL
same,Kp at 0.08 h,[24],1.17
same,Kp at 0.35 h,[24],1.55
same,Kp at 1 h,[24],1.29
same,Kp at 3 h,[24],1.64
same,bioavailability,"male, C57BL/6, mouse, plasma, po, 10 mg/kg, PO 10 mg/kg, AUClast considered, read-out: Oral bioavailability, % F",64%
same,bioavailability,"male, C57BL/6, mouse, plasma, po, 10 mg/kg, summary data, read-out: Oral bioavailability",64%
same,Tmax,"male, C57BL/6, mouse, plasma, IP 10 mg/kg",21 min
same,clearance,"male, C57BL/6, mouse, plasma, IV 2 mg/kg, read-out: CL, plasma clearance",130 mL/min/kg
same,half-life,"male, C57BL/6, mouse, plasma, IV 2 mg/kg, read-out: T1/2, terminal elimination half-life (converted)",52.8 min
same,Tmax,"male, C57BL/6, mouse, plasma, PO 10 mg/kg",21 min
same,mortality immediately after dose administration,"mouse, in vivo, iv, 10 mg/kg",mortality was observed in four animals
